# Patent US12583825B2, “Benzo[h]quinazolin-4-amine and thieno[3,2-h]quinazolin-4-amine derivatives for the treatment of cancer” (Redona Therapeutics, Inc., priority 2020, dated 2026)
# pIC50: −log10 of the molar value.
# Legend:
# recombinant human CLK3 = biological target: T1, recombinant human CLK3 (Homo sapiens, UniProt P49761); assay: CLK3 kinase assay (LANCE Ultra); format: biochemical; details: 0.5 nM CLK3, 300 μM ATP, 3 hours at 30° C.
# T1 construct: purchased Thermo Fisher Scientific PV3826
# Summary of the method: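 TR-FRET (LANCE Ultra) read-out of phospho-CREBtide after a 3 h, 30 °C reaction containing 300 μM ATP, 50 nM ULight-CREBtide and 0.5 nM recombinant human CLK3, compounds in 1% DMSO.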
# MDA-MB-231 cells = assay: MDA-MB-231 proliferation assay; format: cell-based; details: Homo sapiens, 72 hours, YO-PRO-1 readout
# Summary of the method: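 Cells seeded at 750/well in DMEM with 10% FBS, treated 72 h at 37 °C, 0.5% DMSO final. Cell number read by YO-PRO-1 fluorescence (485/530 nm), normalised to DMSO (100%) and time-of-addition cells (0%); 4-parameter logistic fit with maximum fixed at 100%.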
# T1 sequence (P49761 whole entry): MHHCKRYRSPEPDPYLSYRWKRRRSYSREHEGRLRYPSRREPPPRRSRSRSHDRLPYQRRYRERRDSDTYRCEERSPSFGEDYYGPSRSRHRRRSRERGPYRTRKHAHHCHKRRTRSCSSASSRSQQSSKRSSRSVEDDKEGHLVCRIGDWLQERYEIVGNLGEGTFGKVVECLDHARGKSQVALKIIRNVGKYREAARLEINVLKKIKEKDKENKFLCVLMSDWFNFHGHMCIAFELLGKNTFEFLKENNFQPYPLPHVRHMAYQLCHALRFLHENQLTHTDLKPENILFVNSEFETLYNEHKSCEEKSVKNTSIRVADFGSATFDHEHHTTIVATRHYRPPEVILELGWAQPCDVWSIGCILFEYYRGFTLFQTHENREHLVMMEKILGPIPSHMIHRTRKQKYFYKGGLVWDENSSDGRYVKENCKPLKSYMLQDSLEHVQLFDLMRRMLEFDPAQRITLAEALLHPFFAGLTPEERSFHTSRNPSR
compound,measurement,setting,value
"Nc1ncnc2c1C1(CCCC1)/C(=N/O)c1cc(O[C@H]3CC[C@@H](N)CC3)ccc1-2 [Example 104, 4-amino-8-(cis-4-minocyclohexoxy)spiro[benzo[h]quinazoline-5,1′-cyclopentane]-6-one oxime]",pIC50,recombinant human CLK3,7.98
same,GI50,MDA-MB-231 cells,41.3 nM
"CC1(C)/C(=N/OCCc2ccccc2)c2cc(O[C@H]3CC[C@@H](N)CC3)ccc2-c2ncnc(N)c21 [Example 106, (6Z)-8-(cis-4-aminocyclohexoxy)-5,5-dimethyl-6-(2-phenylethoxyimino)benzo[h]quinazoline-4-amine]",pIC50,recombinant human CLK3,7.63
same,GI50,MDA-MB-231 cells,307 nM
"CC1(C)/C(=N/OCCCS(C)(=O)=O)c2cc(O[C@H]3CC[C@@H](N)CC3)ccc2-c2ncnc(N)c21 [Example 110, (6Z)-8-(cis-4-aminocyclohexoxy)-5,5-dimethyl-6-(3-methylsulfonylpropoxyimino)benzo[h]quinazoline-4-amine]",pIC50,recombinant human CLK3,7.50
same,GI50,MDA-MB-231 cells,> 2000 nM
"CC1(C)/C(=N/OCCOCC(F)(F)F)c2cc(O[C@H]3CC[C@@H](N)CC3)ccc2-c2ncnc(N)c21 [Example 112, (6Z)-8-(cis-4-aminocyclohexoxy)-5,5-dimethyl-6-[2-(2,2,2-trifluoroethoxy)ethoxyimino]benzo[h]quinazolin-4-amine]",pIC50,recombinant human CLK3,8.06
same,GI50,MDA-MB-231 cells,66.2 nM
"CC1(C)/C(=N/OCCCCF)c2cc(O[C@H]3CC[C@@H](N)CC3)ccc2-c2ncnc(N)c21 [Example 113, (6Z)-8-(cis-4-aminocyclohexoxy)-6-(4-fluorobutoxyimino)-5,5-dimethyl-benzo[h]quinazolin-4-amine]",pIC50,recombinant human CLK3,7.67
same,GI50,MDA-MB-231 cells,167 nM
"CC1(C)/C(=N/OCCCC(F)(F)F)c2cc(O[C@H]3CC[C@@H](N)CC3)ccc2-c2ncnc(N)c21 [Example 114, (6Z)-8-(cis-4-aminocyclohexoxy)-5,5-dimethyl-6-(4,4,4-trifluorobutoxyimino)benzo[h]quinazolin-4-amine]",pIC50,recombinant human CLK3,7.31
same,GI50,MDA-MB-231 cells,373 nM
"CC1(C)/C(=N/OCCC(F)(F)F)c2cc(O[C@H]3CC[C@@H](N)CC3)ccc2-c2ncnc(N)c21 [Example 116, (6Z)-8-(cis-4-aminocyclohexoxy)-5,5-dimethyl-6-(3,3,3-trifluoropropoxyimino)benzo[h]quinazoline-4-amine]",pIC50,recombinant human CLK3,7.54
same,GI50,MDA-MB-231 cells,71.7 nM
